Patent US4760053A, “Combination therapy for selected sex steroid dependent cancers” (priority 1985, dated 1988)

Assays:
advanced breast cancer = details: cited from earlier work
serum testosterone = experiment: LHRH agonist-induced serum testosterone in the dog; assay type: in vivo; details: dogs; for prevention of the rise in serum testosterone during the first days of treatment with the peptide: given per os three times daily together with 50 μg LHRH-A daily (aminoglutethimide group plus hydrocortisone)
Protocol: Eighteen mongrel dogs weighing between 20-30 kg were randomly divided into three groups. The animals were housed one per cage and fed Purina Dog Chow and tap water ad libitum.
The animals of group 1 were injected daily (at 0700 h) with 50 μg of the LHRH agonist [D-Trp^6, des-Gly-NH2^10 ]LHRH ethylamide (LHRH-A). In group 2, the animals were also injected daily with 50 μg of LHRH-A and took in addition 200 mg of ketoconazole per os at 0700 h, 1500 h and 2300 h. The animals of group 3 received daily 50 μg of LHRH-A and 125 mg of aminoglutethimide per os at 0700 h, 1500 h, 2300 h plus 10 mg of hydrocortisone twice daily.
Blood samples were collected at 0700 h, 0900 h, 1100 h and 1500 h one day before treatment and every day during the treatment. Plasma was extracted with diethyl ether and testosterone was separated on LH-20 columns before RIA measurements.

testosterone levels = details: rodents, in combination with chronic administration of Leuprolide; cited from earlier work
[1] = tested on: MCF7 human breast tumor cells; details: inhibitory activity antagonized by estradiol; cited from earlier work

CC/C(=C(\c1ccccc1)c1ccc(OCCN(C)C)cc1)c1ccccc1 [Tamoxifen, (Z)-2-[4-(1,2-diphenyl-1-butenyl)phenoxy]-N,N-dimethylethanamine]
remission of advanced breast cancer, share of patients treated (advanced breast cancer; Tamoxifen alone): about 30% | objective remission of breast cancer (advanced breast cancer; combined use with the LH-RH agonist Buserelin): 35%

CC(=O)N1CCN(c2ccc(OCC3COC(Cn4ccnc4)(c4ccc(Cl)cc4Cl)O3)cc2)CC1 (centres unmarked) [ketoconazole]
prevention of the rise in serum testosterone during the first days of treatment with the peptide (serum testosterone): almost completely prevented | basal and Leuprolide stimulated testosterone levels (testosterone levels): decreased

CCNC(=O)[C@@H]1CCCN1C(=O)[C@H](CCCNC(=N)N)NC(=O)[C@H](CC(C)C)NC(=O)[C@@H](Cc1c[nH]c2ccccc12)NC(=O)[C@H](Cc1ccc(O)cc1)NC(=O)[C@H](CO)NC(=O)[C@H](Cc1c[nH]c2ccccc12)NC(=O)[C@H](Cc1c[nH]cn1)NC(=O)[C@@H]1CCC(=O)N1 [[D-Trp^6 des-Gly-NH2^10]LHRH ethylamide, [D-Trp^6, des-Gly-NH2^10]LHRH ethylamide]
level of serum testosterone on day 19 (serum testosterone; daily injection of 50 μg, day 19): near-castration levels | increase in serum testosterone (serum testosterone; daily injection of 50 μg, one to six days after start of treatment): approximately 500 % above control

CC[C@H](c1cccc(O)c1)[C@@H](CC)c1cccc(O)c1 [meso-3,4-bis(3'-hydroxyphenyl)hexane]
inhibition of MCF7 human breast tumor cells [1]: inhibits

CCC1(c2ccc(N)cc2)CCC(=O)NC1=O (centres unmarked) [aminoglutethimide, 3-(4-aminophenyl)-3-ethyl-2,6-piperidinedione]
prevention of the rise in serum testosterone during the first days of treatment with the peptide (serum testosterone): almost completely prevented
